This passage reports MBC and Activity results from ChEMBL document CHEMBL6121054, “Discovery of Metabolic Reprogramming 2-Quinolones as Effective Antimicrobials for MRSA-Infected Wound Therapy” (J Med Chem, 2025).

In assay [1] the test system is Staphylococcus aureus. Description: Bactericidal activity against Staphylococcus aureus USA400. In kind it is functional.
Assay [2] concerns Acinetobacter baumannii. Description: Bactericidal activity against Acinetobacter baumannii ATCC 17978. Type of assay: functional.
The test system of assay [3] is Staphylococcus aureus. Description: Antibacterial activity against methicillin-resistant Staphylococcus aureus infected in BALB/c mouse wound model assessed as decrease in wound diameter at 20 to 80 mg/kg administered topically on days 0, 3 and 6 measured after 12 days. Type of assay: functional, organism-based. The conditions noted are these: dose 20-80 mg/kg, route top, time 12.0 day.

Assay [4] concerns Staphylococcus aureus. Nature of the assay: Antibacterial activity against methicillin-resistant Staphylococcus aureus infected in BALB/c mouse wound model assessed as reversal of inflammation-induced IL-6 level in wound at 20 to 80 mg/kg administered topically on days 0, 3 and 6 measured after 12 days by ELISA. Type of assay: functional, organism-based. The conditions noted are these: dose 20-80 mg/kg, route top, time 12.0 day. In general terms: An ELISA detects its analyte on a solid surface through an enzyme-linked reagent.

≈ marks a conversion by molar mass, not a printed value. Calls of active or inactive are those of the source. No cut-off for these calls is given here.

Usually MBC stands for the lowest tested concentration that kills the bacteria rather than only halting them.

As to `CCn1c(=O)c(C(=O)Nc2nnc(-c3ccc(C)cn3)s2)c(O)c2ccccc21`, the MBC in assay [1] was 0.05 µg/mL (≈ 0.123 µM); in assay [2], more than 512 µg/mL. Also, the outcome in assay [3] and in assay [4] was Active.
